In ChEMBL document CHEMBL3259800, “Design, synthesis and biological evaluation of novel 4-alkapolyenylpyrrolo[1,2-a]quinoxalines as antileishmanial agents--part III” (Eur J Med Chem, 2014):

Tests used:
[1] = Cytotoxicity against mouse J774A1 cells after 72 hrs by MTT assay; type: cell-based, J774.A1
[2] = Selectivity index, ratio of CC50 for mouse J774A1 cells to IC50 for Leishmania donovani MHOM/IN/00/DEVI promastigotes; type: functional, J774.A1
Plasmodium falciparum [3] = experiment: Antimicrobial activity against chloroquine-resistant and mefloquine-sensitive Plasmodium falciparum W2 infected in human erythrocytes after 48 hrs by SYBR Green I assay; type: functional, organism-based; settings: W2, 48 h
Leishmania major = experiment: Antimicrobial activity against Leishmania major MHOM/IL/81/BNI promastigotes after 96 hrs by resazurin-based assay; type: functional, organism-based
[4] = Cytotoxicity against human HepG2 cells after 72 hrs by MTT assay; type: cell-based
[5] = Selectivity index, ratio of CC50 for human HepG2 cells to IC50 for Leishmania mexicana MHOM/MX/95/NAN1 promastigotes; type: functional
[6] = Selectivity index, ratio of CC50 for human HepG2 cells to IC50 for Leishmania major MHOM/IL/81/BNI promastigotes; type: functional
[7] = Selectivity index, ratio of CC50 for human HepG2 cells to IC50 for chloroquine and mefloquine-sensitive Plasmodium falciparum 3D7; type: functional
Plasmodium falciparum [8] = experiment: Antimicrobial activity against chloroquine and mefloquine-sensitive Plasmodium falciparum 3D7 infected in human erythrocytes after 48 hrs by SYBR Green I assay; type: functional, organism-based; settings: 3D7, 48 h
Leishmania donovani = experiment: Antimicrobial activity against Leishmania donovani MHOM/IN/00/DEVI promastigotes after 72 hrs by MTT assay; type: functional, organism-based
[9] = Selectivity index, ratio of CC50 for mouse J774A1 cells to IC50 for Leishmania mexicana MHOM/MX/95/NAN1 promastigotes; type: functional, J774.A1
[10] = Selectivity index, ratio of CC50 for mouse J774A1 cells to IC50 for Leishmania major MHOM/IL/81/BNI promastigotes; type: functional, J774.A1
Leishmania mexicana = experiment: Antimicrobial activity against Leishmania mexicana MHOM/MX/95/NAN1 promastigotes after 96 hrs by resazurin-based assay; type: functional, organism-based; settings: MHOM/MX/95/NAN1, 96 h
[11] = Selectivity index, ratio of CC50 for human HepG2 cells to IC50 for chloroquine-resistant and mefloquine-sensitive Plasmodium falciparum W2; type: functional
[12] = Selectivity index, ratio of CC50 for human HepG2 cells to IC50 for Leishmania donovani MHOM/IN/00/DEVI promastigotes; type: functional
[13] = Selectivity index, ratio of CC50 for human HepG2 cells to IC50 for Trypanosoma brucei brucei Antat 1.1; type: functional
[14] = test system: Trypanosoma brucei brucei; experiment: Antimicrobial activity against Trypanosoma brucei brucei Antat 1.1 after 24 hrs by haemocytometric analysis; type: functional, organism-based; settings: Antat 1.1, 24 h

Row | Structure (SMILES) | CC50 at 72 h [1] | Ratio CC50/IC50 [2] | IC50 (Plasmodium falciparum [3]) | IC50 (Leishmania major) | CC50 at 72 h [4] | Ratio CC50/IC50 [5] | Ratio CC50/IC50 [6] | Ratio CC50/IC50 [7] | IC50 (Plasmodium falciparum [8]) | IC50 (Leishmania donovani) | Ratio CC50/IC50 [9] | Ratio CC50/IC50 [10] | IC50 (Leishmania mexicana) | Ratio CC50/IC50 [11] | Ratio CC50/IC50 [12] | Ratio CC50/IC50 [13] | IC50 [14]
1 | CCC/C=C/C=C/c1nc2cccc(OC)c2n2cccc12 | 7.1 µM | 0.7 | 1.3 µM | 3.9 µM | 17.4 µM | 1.7 | 4.5 | 10.9 | 1.6 µM | 9.9 µM | 0.7 | 1.8 | 10.3 µM | 13.4 | 1.8 | – | –
2 | CCC/C=C/C=C/c1nc2ccccc2n2cccc12 | 4.7 µM | 0.6 | 1.1 µM | 3.9 µM | 9.3 µM | 0.8 | 2.4 | 3.7 | 2.5 µM | 7.6 µM | 0.4 | 1.2 | 12.1 µM | 8.5 | 1.2 | – | –
3 | C/C=C/C=C/c1nc2ccccc2n2ccc(OCC)c12 | 3.5 µM | 0.9 | 9.6 µM | 1.5 µM | 4.5 µM | 0.5 | 3 | 0.6 | 7.7 µM | 4 µM | 0.4 | 2.3 | 9.6 µM | 0.5 | 1.1 | – | –
4 | C/C=C/C=C/c1nc2ccc(OC)cc2n2cccc12 | 5.3 µM | 1 | 2.4 µM | 2.7 µM | 8.7 µM | 2.4 | 3.2 | 5.8 | 1.5 µM | 5.4 µM | 1.4 | 2 | 3.7 µM | 3.6 | 1.6 | 4.8 | 1.8 µM
5 | CCCC/C=C/C=C/c1nc2cc(OC)ccc2n2cccc12 | 8 µM | 0.7 | 13.8 µM | 2.5 µM | 18.3 µM | 2.8 | 7.3 | 2.1 | 8.9 µM | 12.1 µM | 1.2 | 3.2 | 6.6 µM | 1.3 | 1.5 | 16.6 | 1.1 µM
6 | C/C=C/C=C/c1nc2ccccc2n2cccc12 | 4.3 µM | 0.4 | 2.5 µM | 4.7 µM | 10.3 µM | 1.4 | 2.2 | 4.3 | 2.4 µM | 9.8 µM | 0.6 | 0.9 | 7.6 µM | 4.1 | 1.1 | 4.3 | 2.4 µM
7 | C/C=C/C=C/c1nc2cccc(OC)c2n2cccc12 | 2.7 µM | 0.4 | 2.6 µM | 3.3 µM | 6.5 µM | 0.8 | 2 | 2 | 3.2 µM | 7.2 µM | 0.3 | 0.8 | 8 µM | 2.5 | 0.9 | 2.9 | 2.2 µM
8 | C/C=C/C=C/c1nc2cc(OC)ccc2n2cccc12 | 2.5 µM | 0.5 | 3.4 µM | 3 µM | 5.8 µM | 1.8 | 1.9 | 1.8 | 3.3 µM | 5.3 µM | 0.8 | 0.8 | 3.3 µM | 1.7 | 1.1 | 2.8 | 2.1 µM
9 | CCCC/C=C/C=C/c1nc2ccccc2n2cccc12 | 8.8 µM | 0.6 | 6.7 µM | 3.7 µM | 8.2 µM | 1.3 | 2.2 | 1.3 | 6.3 µM | 13.7 µM | 1.4 | 2.4 | 6.1 µM | 1.2 | 0.6 | – | –
10 | CCC/C=C/C=C/c1nc2ccc(OC)cc2n2cccc12 | 7.8 µM | 1 | 11 µM | 7.4 µM | 20.1 µM | 4 | 2.7 | 6.1 | 3.3 µM | 7.6 µM | 1.5 | 1.1 | 5.1 µM | 1.8 | 2.6 | – | –
11 | N=C(N)c1ccc(OCCCCCOc2ccc(C(=N)N)cc2)cc1 [PENTAMIDINE] | 0.56 µM | 0.1 | – | 4.3 µM | – | 1 | 0.5 | – | – | 5.5 µM | 0.2 | 0.1 | 2.4 µM | – | 0.4 | 46 | 0.05 µM
12 | O[C@@H](c1cc(C(F)(F)F)nc2c(C(F)(F)F)cccc12)[C@H]1CCCCN1 [(S,R)-MEFLOQUINE] | – | – | 0.015 µM | – | – | – | – | – | – | – | – | – | – | – | – | – | –
13 | CCCC/C=C/C=C/c1nc2cccc(OC)c2n2cccc12 | 6.4 µM | 0.6 | 19.8 µM | 5.8 µM | 15.8 µM | 3.5 | 2.7 | 1.6 | 9.8 µM | 11.6 µM | 1.4 | 1.1 | 4.5 µM | 0.8 | 1.4 | – | –
